In patent US12421254B2, “KRAS modulators and uses thereof” (Quanta Therapeutics, Inc., priority 2023, dated 2025):
Read-outs that look alike come from different tables or passages of the source.

Key:
[1] = target: GST-tagged KRAS-G12D (2-169) (Homo sapiens, UniProt P01116, G12D); assay: Nucleotide exchange assay (NEA), SOS-mediated, HTRF, KRAS G12D; format: biochemical; settings: IC50 extracted at 30 min, 20 nM SOScat
Source text: (§1) This activity is tightly regulated by GTPase activating proteins (GAPs) and guanine nucleotide exchange factors (GEFs). GEFs, such as SOS1/2, activate Ras proteins by exchanging GDP for GTP, thus returning Ras to its active conformation (Simanshu, Nissley, & McCormick, 2017). […] Homogenous time resolved fluorescence (HTRF) was used to detect SOS-mediated binding of a fluorescent GTP analog, GTP-DY-647P1 (Jena Biosciences NU-820-647P1) to GST-tagged KRAS-G12D (2-169) or to GST-tagged KRAS-G12V (2-169, Reaction Biology, MSC-11-540).
(§2) GST-tagged KRAS-G12D (2-169) and anti-GST MAb Tb Cryptate Gold (CisBio 61GSTTLB) were diluted into assay buffer (20 mM HEPES, pH 7.3, 150 mM NaCl, 5 mM MgCl2, 0.05% BSA 0.0025% NP40, 1 mM DTT) to prepare a 2.5× donor solution. 5× compound was added to the protein mixture and incubated for 1 h at RT. 2.5× acceptor solution containing SOS1cat (564-1049, Reaction Biology MSC-11-502) and GTP-DY-647P1 were then added to the donor KRAS mixture such that the final concentration of the reaction contained 0.25 nM GST-tagged KRAS-G12D (2-169), 20 nM SOScat, and 150 nM GTP-DY-647P1. The reaction was monitored using at RT with the Envision multimode plate reader (Ex/Em 337/665, […]) up to 90 minutes at 5 minute intervals. To monitor KRAS-G12V SOS-mediated nucleotide exchange, 80 nM SOS was added to reaction instead of 20 nM. All other components were the same as previously described. Data was blanked to reactions without SOS1 and % inhibition was calculated such that DMSO only =0% and blank=100%. Curve fitting was done using a 4 parameter fit. Reported IC50 values were extracted at 30 min and 90 min for the KRAS-G12D and KRAS-G12V assays, respectively.
NEA KRAS G12D IC50 (uM) values of selected compounds are depicted in Table 2 with compounds having a value <0.01 uM as ++++; ≥0.01 uM to 0.1 uM as +++; ≥0.1 uM to 1 uM as ++; ≥1 uM to 20 uM as +; and ≥20 uM as NA.

[2] = target: GST-tagged KRAS-G12V (2-169) (Homo sapiens, UniProt P01116, G12V); assay: Nucleotide exchange assay (NEA), SOS-mediated, HTRF, KRAS G12V; format: biochemical; settings: Table 4; IC50 extracted at 90 min; 80 nM SOS
Chain of GST-tagged KRAS-G12V (2-169) (P01116 2-169 isoform P01116-2 G12V): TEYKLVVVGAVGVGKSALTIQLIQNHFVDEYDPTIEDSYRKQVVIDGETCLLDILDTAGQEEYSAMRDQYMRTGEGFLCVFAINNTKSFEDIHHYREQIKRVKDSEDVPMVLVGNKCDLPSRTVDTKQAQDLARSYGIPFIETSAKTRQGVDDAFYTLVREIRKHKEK
Source text: as §1, §2

[3] = Table 4, read-out: NEA G12D IC50
[4] = Table 2, read-out: NEA-G12D (uM) IC50

Chain of GST-tagged KRAS-G12D (2-169) (P01116 2-169 isoform P01116-2 G12D): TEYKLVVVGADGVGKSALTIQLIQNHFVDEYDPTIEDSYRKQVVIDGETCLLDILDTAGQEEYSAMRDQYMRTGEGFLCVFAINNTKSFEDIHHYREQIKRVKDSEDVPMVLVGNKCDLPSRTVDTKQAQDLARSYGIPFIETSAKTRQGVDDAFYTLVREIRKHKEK

Compound	IC50 [1, 3] [µM]	IC50 [2] [nM]	IC50 [1, 4] [µM]
CC(c1cccnc1N)N(C)c1nc(OC[C@@]23CCCN2C[C@H](F)C3)nc(N2CC3(C2)SCc2sc(N)c(C#N)c23)n1 (stereo partly drawn) [Compound 115, 2-amino-1′-[4-[1-(2-amino-3-pyridyl)ethyl-methyl-amino]-6-[[(2R,8S)-2-fluoro-1,2,3,5,6,7-hexahydropyrrolizin-8-yl]methoxy]-1,3,5-triazin-2-yl]spiro[6H-thieno[3,4-b]thiophene-4,3′-azetidine]-3-carbonitrile]	< 0.01	< 10	–
Cc1ccc(C(C)N(C)c2nc(OC[C@@]34CCCN3C[C@H](F)C4)nc(N3CC4(C3)SCc3sc(N)c(C#N)c34)n2)c(N)n1 (stereo partly drawn) [Compound 230, 2′-amino-1-(4-((1-(2-amino-6-methylpyridin-3-yl)ethyl)(methyl)amino)-6-(((2R,7aS)-2-fluorotetrahydro-1H-pyrrolizin-7a(5H)-yl)methoxy)-1,3,5-triazin-2-yl)-6′H-spiro[azetidine-3,4′-thieno[3,4-b]thiophene]-3′-carbonitrile]	1 to 20	1000 to 20000	–
CN(c1nc(OCC2(CN3CCOCC3)CC2)nc(N2CC3(CCc4sc(N)c(C#N)c43)C2)n1)[C@@H]1COC[C@@H]1O (racemic) [Compound 94, 2-amino-1′-[4-[[rac-(3R,4R)-4-hydroxytetrahydrofuran-3-yl]-methyl-amino]-6-[[1-(morpholinomethyl)cyclopropyl]methoxy]-1,3,5-triazin-2-yl]spiro[5,6-dihydrocyclopenta[b]thiophene-4,3′-azetidine]-3-carbonitrile]	1 to 20	100 to 1000	–
N#Cc1c(N)sc2c1C1(CN(c3nc(OC[C@@]45CCCN4C[C@H](F)C5)nc(N4[C@H]5CC[C@@H]4[C@H](C#N)C5)n3)C1)SC2 (racemic) [Compound 279, 2-amino-1′-[4-[(1RS,2RS,4SR)-2-cyano-7-azabicyclo[2.2.1]heptan-7-yl]-6-[[(2R,8S)-2-fluoro-1,2,3,5,6,7-hexahydropyrrolizin-8-yl]methoxy]-1,3,5-triazin-2-yl]spiro[6H-thieno[3,4-b]thiophene-4,3′-azetidine]-3-carbonitrile]	0.1 to 1	–	–
CC(c1cncnc1O)N(C)c1nc(OC[C@@]23CCCN2C[C@H](F)C3)nc(N2CC3(CCc4sc(N)c(C#N)c43)C2)n1 (stereo partly drawn) [Compound 155, 2-amino-1′-[4-[[(2R,8S)-2-fluoro-1,2,3,5,6,7-hexahydropyrrolizin-8-yl]methoxy]-6-[1-(4-hydroxypyrimidin-5-yl)ethyl-methyl-amino]-1,3,5-triazin-2-yl]spiro[5,6-dihydrocyclopenta[b]thiophene-4,3′-azetidine]-3-carbonitrile]	1 to 20	1000 to 20000	–
CC(c1nccnc1N)N(C)c1nc(OC[C@@]23CCCN2C[C@H](F)C3)nc(N2CC3(CCc4sc(N)c(C#N)c43)C2)n1 (stereo partly drawn) [Compound 102, 2-amino-1′-[4-[1-(3-aminopyrazin-2-yl)ethyl-methyl-amino]-6-[[(2R,8S)-2-fluoro-1,2,3,5,6,7-hexahydropyrrolizin-8-yl]methoxy]-1,3,5-triazin-2-yl]spiro[5,6-dihydrocyclopenta[b]thiophene-4,3′-azetidine]-3-carbonitrile]	0.01 to 0.1	< 10	–
N#Cc1c(N)sc2c1C1(CN(c3nc(OC[C@@]45CCCN4C[C@H](F)C5)nc(N4C5CNC(=O)C4C5)n3)C1)SC2 (stereo partly drawn) [Compound 267, 2-amino-1′-[4-[[(2R,8S)-2-fluoro-1,2,3,5,6,7-hexahydropyrrolizin-8-yl]methoxy]-6-(2-oxo-3,6-diazabicyclo[3.1.1]heptan-6-yl)-1,3,5-triazin-2-yl]spiro[6H-thieno[3,4-b]thiophene-4,3′-azetidine]-3-carbonitrile]	0.01 to 0.1	< 10	–
C[C@@]1(O)CCCN(c2nc(OC[C@@]34CCCN3C[C@H](F)C4)nc(N3CCC4(CCc5sc(N)c(C#N)c54)C3)n2)C1 (stereo partly drawn) [Compound 11, 2-amino-1′-[4-[[(2R,8S)-2-fluoro-1,2,3,5,6,7-hexahydropyrrolizin-8-yl]methoxy]-6-[(3R)-3-hydroxy-3-methyl-1-piperidyl]-1,3,5-triazin-2-yl]spiro[5,6-dihydrocyclopenta[b]thiophene-4,3′-pyrrolidine]-3-carbonitrile]	0.1 to 1	100 to 1000	0.1 to 1
N#Cc1c(N)sc2c1C1(CN(c3nc(OC[C@@]45CCCN4C[C@H](F)C5)nc(N4CCC5(CCN5C(=O)n5cncn5)C4)n3)C1)SC2 (stereo partly drawn) [Compound 248, 2-amino-1′-[4-[[(2R,8S)-2-fluoro-1,2,3,5,6,7-hexahydropyrrolizin-8-yl]methoxy]-6-[1-(1,2,4-triazole-1-carbonyl)-1,7-diazaspiro[3.4]octan-7-yl]-1,3,5-triazin-2-yl]spiro[6H-thieno[2,3-c]thiophene-4,3′-azetidine]-3-carbonitrile]	–	1000 to 20000	–
C[C@@]1(O)CCCN(c2nc(OC[C@@]34CCCN3[C@H](COc3cc(C(F)(F)F)ncn3)CC4)nc(N3CC4(C3)SCc3sc(N)c(C#N)c34)n2)C1 (racemic) [Compound 253, 2-amino-1′-[4-[(3R)-3-hydroxy-3-methyl-1-piperidyl]-6-[[(3SR,8SR)-3-[[6-(trifluoromethyl)pyrimidin-4-yl]oxymethyl]-1,2,3,5,6,7-hexahydropyrrolizin-8-yl]methoxy]-1,3,5-triazin-2-yl]spiro[6H-thieno[3,4-b]thiophene-4,3′-azetidine]-3-carbonitrile]	–	< 10	–
N#Cc1c(N)sc2c1C1(CC2)CN(c2nc(OC[C@@]34CCCN3C[C@H](F)C4)nc(O[C@@H]3COC[C@H]3O)n2)C1 (racemic) [Compound 80, 2-amino-1′-[4-[[(2R,8S)-2-fluoro-1,2,3,5,6,7-hexahydropyrrolizin-8-yl]methoxy]-6-[rac-(3R,4R)-4-hydroxytetrahydrofuran-3-yl]oxy-1,3,5-triazin-2-yl]spiro[5,6-dihydrocyclopenta[b]thiophene-4,3′-azetidine]-3-carbonitrile; 2,2,2-trifluoroacetic acid]	–	1000 to 20000	–
CC1(O)CCCN(c2nc(OCC34CCCN3C(COc3cc(C(F)(F)F)ncn3)CC4)nc(N3CC4(C3)SCc3sc(N)c(C#N)c34)n2)C1 (single isomer, unassigned) [Compound 256B]	< 0.01	–	–
N#Cc1c(N)sc2c1C1(CCC2)CN(c2nc(OCC3(CN4CCOCC4)CC3)nc(N3CCC[C@]4(C3)NC(=O)NC4=O)n2)C1 [Compound 6, 2-amino-1′-[4-[[1-(morpholinomethyl)cyclopropyl]methoxy]-6-[(5R)-2,4-dioxo-1,3,9-triazaspiro[4.5]decan-9-yl]-1,3,5-triazin-2-yl]spiro[6,7-dihydro-5H-benzothiophene-4,3′-azetidine]-3-carbonitrile]	–	–	0.01 to 0.1
N#Cc1c(N)sc2c1C1(CN(c3nc(OC[C@@]45CCCN4C[C@H](F)C5)nc(N4[C@H]5CC[C@@H]4C(=O)C5)n3)C1)SC2 [Compound 280, 2-amino-1′-[4-[[(2R,8S)-2-fluoro-1,2,3,5,6,7-hexahydropyrrolizin-8-yl]methoxy]-6-(2-oxo-7-azabicyclo[2.2.1]heptan-7-yl)-1,3,5-triazin-2-yl]spiro[6H-thieno[3,4-b]thiophene-4,3′-azetidine]-3-carbonitrile]	0.01 to 0.1	–	–
